From PubChem BioAssay AID2060886 (Molecular Pharmacology Branch, DTP, NCI, 2025) come the findings set out here.

This test has as its system 653999-131-R-J2-PDC complex spheroids, growth inhibition. Briefly: Anticancer human tumor 653999-131-R-J2-PDC patient-derived lung adenocarcinoma cell line growth inhibition [RAS]. As to conditions: for viability, T/C: stronger effect = lower value. In outline: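 Multi-cell-type spheroids: tumor cells plus HUVEC endothelial cells and mesenchymal stem cells. RAS-pathway inhibitors were combined with targeted agents, each dosed in half-log steps down from clinical Cmax, or from 10 microM when Cmax was unknown.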

Where [1] appears, read: curve of first compound, second compound 0.000949 µM.
Setting [2] is: curve of first compound, second compound 0.003 µM.
Where [3] appears, read: curve of first compound, second compound 0.00949 µM.
Where [4] appears, read: curve of first compound, second compound 0.03 µM.
[5] abbreviates: curve of first compound, second compound 0.0949 µM.
Where [6] appears, read: curve of first compound, second compound 0.3 µM.
Setting [7] is: second compound 0.000949 µM, first compound 0.0316 µM.
Where [8] appears, read: second compound 0.000949 µM, first compound 0.1 µM.
Where [9] appears, read: second compound 0.000949 µM, first compound 0.316 µM.
Setting [10] is: second compound 0.000949 µM, first compound 1 µM.
The mark [11] stands for this setting: second compound 0.003 µM, first compound 0.0316 µM.
[12] abbreviates: second compound 0.003 µM, first compound 0.1 µM.
Where [13] appears, read: second compound 0.003 µM, first compound 0.316 µM.
The mark [14] stands for this setting: second compound 0.003 µM, first compound 1 µM.
[15] abbreviates: second compound 0.00949 µM, first compound 0.0316 µM.
The mark [16] stands for this setting: second compound 0.00949 µM, first compound 0.1 µM.
[17] abbreviates: second compound 0.00949 µM, first compound 0.316 µM.
Where [18] appears, read: second compound 0.00949 µM, first compound 1 µM.
The mark [19] stands for this setting: second compound 0.03 µM, first compound 0.0316 µM.
Where [20] appears, read: second compound 0.03 µM, first compound 0.1 µM.
The mark [21] stands for this setting: second compound 0.03 µM, first compound 0.316 µM.
Where [22] appears, read: second compound 0.03 µM, first compound 1 µM.
The mark [23] stands for this setting: second compound 0.0949 µM, first compound 0.0316 µM.
[24] abbreviates: second compound 0.0949 µM, first compound 0.1 µM.
Setting [25] is: second compound 0.0949 µM, first compound 0.316 µM.
Where [26] appears, read: second compound 0.0949 µM, first compound 1 µM.
The mark [27] stands for this setting: second compound 0.3 µM, first compound 0.0316 µM.
[28] abbreviates: second compound 0.3 µM, first compound 0.1 µM.
Where [29] appears, read: second compound 0.3 µM, first compound 0.316 µM.
The mark [30] stands for this setting: second compound 0.3 µM, first compound 1 µM.

SMILES strings stand for the structures. pIC50: −log10 of the molar value. Where “and” joins values, the source holds several entries; their conditions need not be identical. Identical values can stand only once. A value given as a limit tells only on which side of the number the result lay.
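Also: spheroids exposed to the agents for seven days before the readout.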

Broadly, the pIC50 is the IC50 on a negative log10 scale, so that one unit is a factor of ten. The term viability, T/C denotes the result in the treated group divided by that in the control group, in per cent. Consider `CC1(O)CCCC1n1c(=O)c(C(F)F)cc2cnc(NC3CCN(S(C)(=O)=O)CC3)nc21` (stereo unspecified) + CCn1c(-c2cccnc2C(C)OC)c2c3cc(ccc31)N1CCOC(CC(NC(=O)C(C(C)C)N(C)C(=O)C3(F)CCN(C(=O)C#CC(C)(C)N(C)C)CC3)C(=O)N3CCCC(N3)C(=O)OCC(C)(C)C2)C1, for which the negative-log IC50 (pIC50) was under 5.00 under setting [1]; 5.18 under setting [2]; 5.18 under setting [3]; under 5.00 under setting [4]; 5.16 under setting [5]; 5.18 under setting [6]. Besides, the viability, T/C is 88.3% under setting [7]; 71.1% under setting [8]; 67.8% under setting [9]; 59.2% under setting [10]; 81.2% (second compound 0.000949 µM, first compound 3.16 µM); 47.2% (second compound 0.000949 µM, first compound 10 µM). For the same molecule, the viability, T/C reads like this: under setting [11], 86.8%; under setting [12], 71.4%; under setting [13], 73.4%; under setting [14], 62.5%; (second compound 0.003 µM, first compound 3.16 µM) 71.7%; (second compound 0.003 µM, first compound 10 µM) 39.6%. Besides, the viability, T/C was 97.2% under setting [15]; 69.3% under setting [16]; 78.6% under setting [17]; 79.8% under setting [18]; 79.5% (second compound 0.00949 µM, first compound 3.16 µM); 33.4% (second compound 0.00949 µM, first compound 10 µM). The viability, T/C is 92.6% under setting [19]; 62.1% under setting [20]; 60.9% under setting [21]; 63.8% under setting [22]; 83.3% (second compound 0.03 µM, first compound 3.16 µM); 42.5% (second compound 0.03 µM, first compound 10 µM). Besides, the viability, T/C was 86.8% under setting [23]; 73.4% under setting [24]; 64.4% under setting [25]; 65.4% under setting [26]; 85.9% (second compound 0.0949 µM, first compound 3.16 µM); 38.1% (second compound 0.0949 µM, first compound 10 µM). Moreover, the viability, T/C is 84.3% under setting [27]; 62.3% under setting [28]; 72% under setting [29]; 68.9% under setting [30]; 88.9% (second compound 0.3 µM, first compound 3.16 µM); 36.1% (second compound 0.3 µM, first compound 10 µM).

For the molecule `CCN1CCN(Cc2ccc(Nc3ncc(F)c(-c4cc(F)c5nc(C)n(C(C)C)c5c4)n3)nc2)CC1` + CCn1c(-c2cc(N3CCN(C)CC3)cnc2C(C)OC)c2c3cc(ccc31)-c1csc(n1)CC(NC(=O)C1CC1C)C(=O)N1CCCC(N1)C(=O)OCC(C)(C)C2, the pIC50 under setting [1] was under 6.00; the pIC50 under setting [2] was 7.02; the pIC50 under setting [3] is 8.23; the pIC50 under setting [4] is over 8.50; the pIC50 under setting [5] is over 8.50; the pIC50 under setting [6] was over 8.50. For the same molecule, the viability, T/C (second compound 0.000949 µM, first compound 0.00316 µM) is 81.5%; the viability, T/C (second compound 0.000949 µM, first compound 0.01 µM) is 62.4%; the viability, T/C under setting [7] was 66.9%; the viability, T/C under setting [8] is 58.1%; the viability, T/C under setting [9] is 62.6%; the viability, T/C under setting [10] is 58%. The viability, T/C is 63.4% (second compound 0.003 µM, first compound 0.00316 µM); 66.9% (second compound 0.003 µM, first compound 0.01 µM); 62.3% under setting [11]; 49.5% under setting [12]; 46.2% under setting [13]; 47.5% under setting [14]. Moreover, the viability, T/C runs as follows: (second compound 0.00949 µM, first compound 0.00316 µM) 56.6%; (second compound 0.00949 µM, first compound 0.01 µM) 45.9%; under setting [15], 37%; under setting [16], 30.4%; under setting [17], 34%; under setting [18], 33.1%. Besides, the viability, T/C reads like this: (second compound 0.03 µM, first compound 0.00316 µM) 24.2%; (second compound 0.03 µM, first compound 0.01 µM) 30.9%; under setting [19], 30.9%; under setting [20], 24.4%; under setting [21], 26.3%; under setting [22], 29.4%. Moreover, the viability, T/C is 30.6% (second compound 0.0949 µM, first compound 0.00316 µM); 26.6% (second compound 0.0949 µM, first compound 0.01 µM); 15.7% under setting [23]; 22.2% under setting [24]; 24.3% under setting [25]; 25.4% under setting [26]. Further, the viability, T/C reads like this: (second compound 0.3 µM, first compound 0.00316 µM) 23.3%; (second compound 0.3 µM, first compound 0.01 µM) 24.7%; under setting [27], 17.5%; under setting [28], 17.7%; under setting [29], 18.1%; under setting [30], 29.2%.

With `Cc1nc(N2CCC3(CC2)COC(C)C3N)c(CO)nc1Sc1ccnc(N)c1Cl` (stereo unspecified), the viability, T/C runs as follows: (compound 0.0316 µM) 91.2% [middle of 4 runs]; (compound 0.1 µM) 98.4% [middle of 4 runs]; (compound 1 µM) 87.6% [middle of 4 runs]; (compound 3.16 µM) 85.8% [middle of 4 runs]. For the same molecule, the pIC50 (curve of compound) is under 5.00.

A word on the IC50: it is the concentration that gives 50% inhibition. In the case of `Nc1ccn(C2OC(CO)C(O)C2(F)F)c(=O)n1` (stereo unspecified), the viability, T/C is 90.2% [middle of 4 runs] (compound 0.00316 µM); 76.4% [middle of 4 runs] (compound 0.01 µM); 62.9% [middle of 4 runs] (compound 0.0316 µM); 51.2% [middle of 4 runs] (compound 0.1 µM); 43.1% [middle of 4 runs] (compound 0.316 µM); 34.1% and 30.3% (2×) and 33.9% (compound 1 µM). In addition, the IC50 (curve of compound) was 99.5 nM [middle of 4 runs].
